Source: US11779602B2, “Methods of use for CAR T cells” (ENDOCYTE, INC., priority 2018, dated 2023)

What was measured:
MDA-MB-231 tumors = test: CAR-T/EC17 therapy, fixed dose and dose de-escalation, in mice bearing MDA-MB-231 tumors; format: in vivo; conditions: E2-CAR-T 30 million cells, EC17 dose de-escalation
Excerpt: The effect of EC17 dose de-escalation was investigated on the anti-tumor activity and the toxicity (body weight changes) of CAR-T therapy. Two different anti-fluorescein scFv were used for the CAR constructions (FIG. 1). The first construct of CAR contains the following domains: antiFL(FITC-E2)scFv-IgG4 hinge (CH2 (L235D, N297Q)-CH3)-CD28 TM-4-1BB-CD3z-T2A-EGFRt. The second construct of CAR contains the following domains: antiFL(FITC-4M5.3)scFv-IgG4 hinge (CH2 (L235D, N297Q)-CH3)-CD28 TM-4-1BB-CD3z-T2A-EGFRt. The nucleic acid sequence and amino acid sequence of the CAR of each construct are shown as SEQ ID NOS:1 to 4. Human T cells were isolated, activated and transduced with a lentiviral vector carrying the appropriate CAR gene. CD4+ T cells with the CAR-modification and CD8+ T cells with the CAR-modification were isolated and cultured separately in vitro for about 7 days. CD4+ CAR-T cells and CD8+ CAR-T cells were mixed at a 1:1 ratio before i.v. administration for animal studies.
The second construct 4M5.3-CAR (antiFL(FITC-4M5.3) scFv-IgG4 hinge (CH2 (L235D, N297Q)-CH3)-CD28 TM-4-1BB-CD3z-T2A-EGFRt) was also evaluated. Mice bearing MDA-MB-231 tumors (150-250 mm^3) were used for in vivo studies to evaluate 4M5.3-CAR-T cells. […]

HOS-FRα tumor = test: CRS toxicity and sodium fluorescein rescue in HOS-FRα tumor-bearing mice; format: in vivo; conditions: i.v. ~95 mg/kg on day 13, plasma 6 hours later
Protocol: All animal care and use were performed according to NIH guidelines and in compliance with protocols approved by the Purdue University Animal Use and Care Committee. Female 4 to 5-week-old NOD/SCID gamma (NSG™) mice (stock number: 005557) were purchased from The Jackson Laboratory (Bar Harbor, Me.). Unless specifically indicated, all animals were maintained on a FA-deficient diet (TestDiet, St. Louis, Mo.) upon arrival and throughout the study. To establish subcutaneous xenografts, MDA-MB-231 and HOS-FRα were implanted in the right flank region at 2.5×10^6 and 1×10^6 cells per animal, respectively. For intravenous xenografts, THP1-FRβ cells were inoculated at 5×10^6 cells per animal. Subcutaneous tumors were measured 2-3 times per week with a caliper and calculated using the ellipsoidal formula (length×width^2)/2. […] All animal doses (CAR-T cells, EC17, sodium fluorescein) were given intravenously.
Depending on the CAR-T cell dose and how EC17 is administered, tumor-bearing mice receiving FITC-specific CAR-T cells can experience severe CRS and varying degrees of body weight loss. Therefore, a CRS grading system (0-5 scale) was developed to empirically assess CRS toxicity from animals' gross morphology and social behavior to allow for better timing of CRS rescue. While grades 0 and 5 indicated normal (no CRS) or death (due to severe CRS), respectively, grades 1, 2, and 3-4 were considered mild, light-to-moderate, and severe CRS (FIG. 57A). In addition, all EC17 doses were intentionally given towards the end of any given day to allow potential CRS symptoms to develop overnight. On the days immediately following each EC17 dose, animals were scored and rescue agents such as sodium fluorescein, folic acid and leucovorin were used to mitigate CRS toxicity. In this particular instance, a batch of E2 CAR-T cells with a high EGFRt+CD4/CD8 ratio (˜93:7) was given to HOS-FRα tumor-bearing mice at a mixture of ˜2.5 million CD8 and ˜33 million CD4 on day 0 (FIG. 57B). […]

O=C([O-])c1ccccc1-c1c2ccc(=O)cc-2oc2cc([O-])ccc12.[Na+].[Na+] [sodium fluorescein, reference compound]
antitumor activity after NaFL rescue (MDA-MB-231 tumors): antitumor activity is maintained
effect of rescue on CAR-T cell derived human cytokines (HOS-FRα tumor): acted very quickly to reduce CAR-T cell derived human cytokines
